Test results published in PubChem BioAssay AID206 (DTP/NCI, 2004).
Values joined by “and” are separate entries in the source; they are usually repeats but may differ in a detail not shown here. Identical values can stand only once. Inconclusive results are not listed.

Test system: nude mice, HT29 intrarenal xenograft, tumor weight T/C
Assay: NCI In Vivo Anticancer Drug Screen. Data for tumor model HT29;CX-1 Human Adenocarcinoma (MER+) (intrarenal inoculation) in NU/NU Swiss (nude) mice
Settings: endpoint: mean tumor weight change, higher = larger tumour
Method in brief: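 Readout: treated/vehicle-control ratio of the measured endpoint (tumor size or survival) in transplanted-tumor mice.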

[1] = dose: 12.5 mg/kg/injection, schedule: Q01DX010 (sc), vehicle: saline with Tween-80
[2] = dose: 50.0 mg/kg/injection, schedule: Q01DX010 (sc), vehicle: saline with Tween-80
[3] = dose: 100.0 mg/kg/injection, schedule: Q01DX010 (sc), vehicle: saline with Tween-80
[4] = dose: 300.0 mg/kg/injection, schedule: Q04DX004 (sc), vehicle: saline with Tween-80
[5] = dose: 600.0 mg/kg/injection, schedule: Q04DX004 (sc), vehicle: saline with Tween-80
[6] = dose: 1200.0 mg/kg/injection, schedule: Q04DX004 (sc), vehicle: saline with Tween-80
[7] = dose: 150.0 mg/kg/injection, schedule: Q04DX004 (sc), vehicle: saline with Tween-80
[8] = dose: 2400.0 mg/kg/injection, schedule: Q04DX004 (sc), vehicle: saline with Tween-80
[9] = dose: 50.0 mg/kg/injection, schedule: Q04DX004 (sc), vehicle: saline with Tween-80
[10] = dose: 100.0 mg/kg/injection, schedule: Q04DX004 (sc), vehicle: saline with Tween-80
[11] = dose: 200.0 mg/kg/injection, schedule: Q04DX004 (sc), vehicle: saline with Tween-80
[12] = dose: 400.0 mg/kg/injection, schedule: Q04DX004 (sc), vehicle: saline with Tween-80
[13] = dose: 1200.0 mg/kg/injection, schedule: Q04DX004 (sc), vehicle: Klucel (hydroxypropylcellulose) (HPC)

Structure (SMILES): CCC1CN2C(=N1)c1ccccc1-c1cc(Cl)ccc12 (stereo unspecified)
- T/C [1]: 74 % of control
- T/C (dose: 25.0 mg/kg/injection, schedule: Q01DX010 (sc), vehicle: saline with Tween-80): 37 % of control
- T/C [2]: 60 % of control
- T/C [3]: 89 % of control

Structure (SMILES): CS(=O)(=O)OCCN(CCOS(C)(=O)=O)c1ccc(C=Nc2ccc(-c3csc(COc4ccccc4)n3)cc2)cc1
- T/C (dose: 50.0 mg/kg/injection, schedule: Q01DX010 (sc), vehicle: Klucel (hydroxypropylcellulose) (HPC)): 72 % of control
- T/C (dose: 100.0 mg/kg/injection, schedule: Q01DX010 (sc), vehicle: Klucel (hydroxypropylcellulose) (HPC)): 44 % of control

Structure (SMILES): NC1=NCN(C2OC(CO)C(O)C2O)C(=O)N1 (stereo unspecified)
- T/C (dose: 25.0 mg/kg/injection, schedule: Q01DX010 (sc), vehicle: saline): 70 % of control
- T/C (dose: 50.0 mg/kg/injection, schedule: Q01DX010 (sc), vehicle: saline): 31 % of control
- T/C (dose: 100.0 mg/kg/injection, schedule: Q01DX010 (sc), vehicle: saline): 38 % of control

Structure (SMILES): Cc1c2cc(Cl)c3ccccc3c2c[n+]2ccccc12
- T/C [4]: 101 % of control
- T/C [5]: 82 % of control
- T/C [6]: 103 % of control

Structure (SMILES): O=[N+]([O-])c1ccc(Sc2ccncn2)c([N+](=O)[O-])c1
- T/C [7]: 44 % of control
- T/C [4]: 85 % of control
- T/C [5]: 85 % of control and 100 % of control
- T/C [6]: 73 % of control
- T/C [8]: 86 % of control

Structure (SMILES): C=C(C)C(=O)OC1C/C(CO)=C\C(O)C/C(C)=C/C2OC(=O)C(=C)C21 (stereo unspecified)
- T/C (dose: 20.0 mg/kg/injection, schedule: Q04DX004 (sc), vehicle: saline + alcohol): 100 % of control
- T/C (dose: 40.0 mg/kg/injection, schedule: Q04DX004 (sc), vehicle: saline + alcohol): 83 % of control
- T/C (dose: 80.0 mg/kg/injection, schedule: Q04DX004 (sc), vehicle: saline + alcohol): 70 % of control

Structure (SMILES): C[CH2][Pb]([CH2]C)([CH2]C)[O]C(=O)COc1ccccc1
- T/C (dose: 4.5 mg/kg/injection, schedule: Q04DX004 (sc), vehicle: saline with Tween-80): 100 % of control
- T/C (dose: 9.0 mg/kg/injection, schedule: Q04DX004 (sc), vehicle: saline with Tween-80): 114 % of control
- T/C (dose: 18.0 mg/kg/injection, schedule: Q04DX004 (sc), vehicle: saline with Tween-80): 65 % of control

Structure (SMILES): C=C1C(=O)OC2CC(C)C3C4OC4C(O)C3(C)C(O)C12 (stereo unspecified)
- T/C [9]: 99 % of control
- T/C [10]: 121 % of control
- T/C [11]: 107 % of control

Structure (SMILES): c1ccc([C@H]2CN3CCSC3=N2)cc1
- T/C (dose: 15.0 mg/kg/injection, schedule: Q04DX004 (sc), vehicle: saline): 152 % of control
- T/C (dose: 30.0 mg/kg/injection, schedule: Q04DX004 (sc), vehicle: saline): 114 % of control

Structure (SMILES): C[CH2][Ge]([CH2]C)[CH2]C.C[CH2][Ge]([CH2]C)[CH2]C.C[CH2][Ge]([CH2]C)[O][Ge]([CH2]C)[CH2]C
- T/C [7]: 112 % of control

Structure (SMILES): CC[C@H](CC[C@@H](C)C1CC[C@H]2[C@@H]3CC=C4C[C@@H](OP(=O)(N5CC5)N5CC5)CC[C@]4(C)[C@H]3CC[C@]12C)C(C)C (stereo partly specified)
- T/C [3]: 73 % of control
- T/C (dose: 800.0 mg/kg/injection, schedule: Q01DX010 (sc), vehicle: saline with Tween-80): 97 % of control

Structure (SMILES): c1ccc2sc(SSN3CC4CCC(CC4)C3)nc2c1
- T/C [2]: 120 % of control
- T/C (dose: 400.0 mg/kg/injection, schedule: Q01DX010 (sc), vehicle: saline with Tween-80): 96 % of control

Structure (SMILES): CCSC(=O)N1c2ccc(OC)cc2C=CC1C#N (stereo unspecified)
- T/C [5]: 93 % of control
- T/C [6]: 84 % of control
- T/C [8]: 53 % of control

Structure (SMILES): O=C(Nc1cccc2c(OC(=O)C(Cl)Cl)c(N=Nc3ccc(S(=O)(=O)Nc4nccs4)cc3)cc(N=Nc3ccc(S(=O)(=O)Nc4nccs4)cc3)c12)C(Cl)Cl (tested in a mixture with another compound)
- T/C [9]: 78 % of control
- T/C [10]: 94 % of control
- T/C [11]: 58 % of control
- T/C [12]: 56 % of control

Structure (SMILES): C1OCN2CSCC12 (stereo unspecified)
- T/C [10]: 39 % of control
- T/C [11]: 80 % of control
- T/C [12]: 46 % of control

Structure (SMILES): CCc1ccccc1N1CCN(C(=O)c2cc(OC)c(OC)c(OC)c2)CC1
- T/C (dose: 300.0 mg/kg/injection, schedule: Q04DX004 (sc), vehicle: Klucel (hydroxypropylcellulose) (HPC)): 57 % of control
- T/C (dose: 600.0 mg/kg/injection, schedule: Q04DX004 (sc), vehicle: Klucel (hydroxypropylcellulose) (HPC)): 120 % of control
- T/C [13]: 84 % of control

Structure (SMILES): O=C(Nc1nncs1)c1cccs1
- T/C [9]: 61 % of control
- T/C [10]: 93 % of control
- T/C [11]: 72 % of control
- T/C [4]: 106 % of control
- T/C [12]: 95 % of control
- T/C [5]: 121 % of control
- T/C [6]: 110 % of control

Structure (SMILES): CC1=NNC(=O)C1CCO (stereo unspecified)
- T/C (dose: 200.0 mg/kg/injection, schedule: Q04DX004 (sc), vehicle: Klucel (hydroxypropylcellulose) (HPC)): 66 % of control
- T/C (dose: 400.0 mg/kg/injection, schedule: Q04DX004 (sc), vehicle: Klucel (hydroxypropylcellulose) (HPC)): 44 % of control
- T/C (dose: 800.0 mg/kg/injection, schedule: Q04DX004 (sc), vehicle: Klucel (hydroxypropylcellulose) (HPC)): 99 % of control
- T/C (dose: 1600.0 mg/kg/injection, schedule: Q04DX004 (sc), vehicle: Klucel (hydroxypropylcellulose) (HPC)): 63 % of control

Structure (SMILES): C/C=C/c1cc2n(c1)C(=O)c1cc(OC3OC(C)C(NC)C(C)(O)C3O)c(C)c(O)c1NC2O (stereo unspecified)
- T/C (dose: 12.5 micrograms/kg/injection, schedule: Q04DX004 (sc), vehicle: saline): 69 % of control
- T/C (dose: 25.0 micrograms/kg/injection, schedule: Q04DX004 (sc), vehicle: saline): 101 % of control
- T/C (dose: 50.0 micrograms/kg/injection, schedule: Q04DX004 (sc), vehicle: saline): 83 % of control
- T/C (dose: 100.0 micrograms/kg/injection, schedule: Q04DX004 (sc), vehicle: saline): 94 % of control

Structure (SMILES): Cc1cc(C)c(-c2cc(O)c(C)cc2O)c(C)c1
- T/C [13]: 68 % of control
- T/C (dose: 2400.0 mg/kg/injection, schedule: Q04DX004 (sc), vehicle: Klucel (hydroxypropylcellulose) (HPC)): 71 % of control

Structure (SMILES): C=C(C)C(=NC(C)(C)C)Nc1ccccc1
- T/C [10]: 52 % of control

Structure (SMILES): CC(/C=C/c1ccccc1)=Nc1ccccc1
- T/C (dose: 75.0 mg/kg/injection, schedule: Q04DX004 (sc), vehicle: saline with Tween-80): 58 % of control
- T/C [7]: 98 % of control
- T/C [4]: 50 % of control
- T/C [5]: 63 % of control

Structure (SMILES): C=CC(=O)N1CN(C(=O)C=C)CN(C(=O)C=C)C1
- T/C (dose: 6.25 mg/kg/injection, schedule: Q01DX010 (sc), vehicle: saline with Tween-80): 183 % of control
- T/C [1]: 45 % of control

Structure (SMILES): C/C(=N\N=C(/[Se])N1CC2CCC(CC2)C1)c1ccccn1
- T/C (dose: 6.25 mg/kg/injection, schedule: Q04DX004 (sc), vehicle: Klucel (hydroxypropylcellulose) (HPC)): 60 % of control
- T/C (dose: 12.5 mg/kg/injection, schedule: Q04DX004 (sc), vehicle: Klucel (hydroxypropylcellulose) (HPC)): 83 % of control
- T/C (dose: 25.0 mg/kg/injection, schedule: Q04DX004 (sc), vehicle: Klucel (hydroxypropylcellulose) (HPC)): 81 % of control
- T/C (dose: 50.0 mg/kg/injection, schedule: Q04DX004 (sc), vehicle: Klucel (hydroxypropylcellulose) (HPC)): 86 % of control

Structure (SMILES): CO[C@@]12[C@H](COC(N)=O)C3=C(C(=O)C(C)=C(N)C3=O)N1C[C@@H]1N[C@@H]12
- T/C (dose: 0.63 mg/kg/injection, schedule: Q04DX004 (sc), vehicle: saline): 71 % of control
- T/C (dose: 1.5 mg/kg/injection, schedule: Q04DX004 (sc), vehicle: saline): 10 % of control
- T/C (dose: 2.0 mg/kg/injection, schedule: Q04DX004 (ip), vehicle: saline): 29 % of control
- T/C (dose: 3.0 mg/kg/injection, schedule: Q04DX003 (sc), vehicle: saline): 13 % of control
- T/C (dose: 3.0 mg/kg/injection, schedule: Q04DX004 (ip), vehicle: saline): 8 % of control
- T/C (dose: 3.0 mg/kg/injection, schedule: Q04DX004 (sc), vehicle: saline): -59 % of control
- T/C (dose: 4.5 mg/kg/injection, schedule: Q04DX004 (ip), vehicle: saline): -82 % of control
- T/C (dose: 6.0 mg/kg/injection, schedule: Q04DX003 (sc), vehicle: saline): -37 % of control

Structure (SMILES): NC(=O)NO
- T/C (dose: 37.5 mg/kg/injection, schedule: Q04DX004 (sc), vehicle: saline): 75 % of control
- T/C (dose: 75.0 mg/kg/injection, schedule: Q04DX004 (sc), vehicle: saline): 79 % of control
- T/C (dose: 150.0 mg/kg/injection, schedule: Q04DX004 (sc), vehicle: saline): 75 % of control
- T/C (dose: 300.0 mg/kg/injection, schedule: Q04DX004 (sc), vehicle: saline): 86 % of control
